Series [1] relates to BV-2. The experiment in a line: Inhibition of LPS-induced NF-kappaB activation in mouse BV-2 cells assessed as reduction in IRAK1 phosphorylation at 100 uM incubated for 1 hr by Western blot analysis. Type of series: cell-based.
The test system of series [2] is BV-2. The series can be described thus: Inhibition of LPS-induced NF-kappaB activation in mouse BV-2 cells assessed as reduction in NF-kappaB p65 phosphorylation at 100 uM incubated for 1 hr by Western blot analysis. It counts as cell-based. (Immunoblotting shows a protein as a band on a membrane.)
Series [3] has as its system BV-2. The experiment in a line: Antiinflammatory activity in mouse BV-2 cells assessed as reduction in LPS-induced IL-1beta mRNA expression incubated for 6 hrs by qRT-PCR analysis. It counts as functional, cell-based. The settings on record: dose 20-100 µM. Background: Quantitative PCR measures a nucleic acid by following its amplification.
Series [4] deals with BV-2. The experiment in a line: Antiinflammatory activity in mouse BV-2 cells assessed as reduction in LPS-induced iNOS mRNA expression incubated for 6 hrs by qRT-PCR analysis. It counts as functional, cell-based. The note with it: dose 20-100 µM.
Series [5] deals with BV-2. The experiment in a line: Inhibition of LPS-induced MAPK activation in mouse BV-2 cells assessed as reduction in JNK phosphorylation at 100 uM incubated for 1 hr by Western blot analysis. Type of series: cell-based.
Series [6] concerns BV-2. The series can be described thus: Inhibition of LPS-induced NF-kappaB activation in mouse BV-2 cells expressing luciferase gene at 5 to 100 uM incubated for 24 hrs by steady-glo luciferase assay. It counts as cell-based. The settings on record: dose 5-100 µM.
Series [7] relates to BV-2. The experiment in a line: Inhibition of LPS-induced MAPK activation in mouse BV-2 cells assessed as reduction in ERK phosphorylation at 100 uM incubated for 1 hr by Western blot analysis. Type of series: cell-based.
Series [8] has as its system BV-2. The experiment in a line: Cytotoxicity against mouse BV-2 cells assessed as reduction in cell viability upto 200 uM incubated for 24 hrs by crystal violet dye based assay. The settings on record: bv-2, 24 h.
The subject of series [9] is BV-2. The series can be described thus: Inhibition of LPS-induced MAPK activation in mouse BV-2 cells assessed as reduction in p38 phosphorylation at 100 uM incubated for 1 hr by Western blot analysis. It counts as cell-based.
Series [10] has as its system BV-2. The series can be described thus: Inhibition of LPS-induced NF-kappaB activation in mouse BV-2 cells assessed as reduction in IKKalpha/beta phosphorylation at 100 uM incubated for 1 hr by Western blot analysis. It counts as cell-based.
The subject of series [11] is BV-2. The experiment in a line: Antiinflammatory activity in mouse BV-2 cells assessed as reduction in LPS-induced nitric oxide production incubated for 24 hrs by 2, 3-diaminonaphthalene based assay. Type of series: functional, cell-based.
Series [12] relates to BV-2. The series can be described thus: Antiinflammatory activity in mouse BV-2 cells assessed as reduction in LPS-induced iNOS mRNA expression at 100 uM incubated for 6 hrs by qRT-PCR analysis. It counts as functional, cell-based.
For series [13], the system named is BV-2. The series can be described thus: Antiinflammatory activity in mouse BV-2 cells assessed as reduction in LPS-induced IL-1beta mRNA expression at 100 uM incubated for 6 hrs by qRT-PCR analysis. Type of series: functional, cell-based.
Series [14] has as its system BV-2. The experiment in a line: Cytotoxicity against mouse BV-2 cells assessed as reduction in cell viability incubated for 24 hrs by crystal violet dye based assay. The note with it: BV-2, 24 h.
Series [15] deals with BV-2. The experiment in a line: Cytotoxicity against mouse BV-2 cells assessed as reduction in cell viability incubated for 24 hrs in presence of DHA by crystal violet dye based assay. The settings on record: bv-2, 24 h.
Series [16] has as its system BV-2. The experiment in a line: Antiinflammatory activity in mouse BV-2 cells assessed as reduction in LPS-induced nitric oxide production incubated for 24 hrs in presence of DHA by 2, 3-diaminonaphthalene based assay. Type of series: functional, cell-based.
[17] abbreviates: Mus musculus, BV-2, 24 h, read-out: IC50.

The text below walks through data of ChEMBL document CHEMBL4819080, “Cannabidiol-dihydroartemisinin conjugates for ameliorating neuroinflammation with reduced cytotoxicity” (Bioorg Med Chem, 2021).

The source made the active and inactive calls. The calls are words filed in the database; no cut-off is given here.

`C=C(C)[C@@H]1CCC(C)=C[C@H]1c1c(O)cc(CCCCC)cc1OCCCO[C@H]1O[C@@H]2O[C@]3(C)CC[C@H]4[C@H](C)CC[C@@H]([C@H]1C)[C@@]24OO3`: the inhibition entry in series [1], in [2], in series [6] and in series [10] was “Active” each time. The inhibition result in series [3], in [4] and in series [11] was “Dose-Dependent Effect” throughout. For the same molecule, the inhibition result in [5], in [7] and in [9] was “inactive” each time. The Activity entry in series [8] is on record as “Non-Toxic”. The IC50 – broadly, the point on the concentration scale where inhibition reaches its midpoint – in series [11] (setting [17]) worked out at 11.7 µM.

`C=C(C)[C@@H]1CCC(C)=C[C@H]1c1c(O)cc(CCCCC)cc1OCCCCO[C@H]1O[C@@H]2O[C@]3(C)CC[C@H]4[C@H](C)CC[C@@H]([C@H]1C)[C@@]24OO3`: the inhibition entry in series [12] and in series [13] was “inactive” each time. Moreover, the Activity entry in [8] is recorded as “Non-Toxic”. In [11] (bv-2), the half-maximal inhibitory concentration (IC50) entry is reported as “Not Active”.

As for `C[C@H]1[C@@H](O)O[C@@H]2O[C@@]3(C)CC[C@H]4[C@H](C)CC[C@@H]1[C@@]24OO3` [ARTENIMOL], the concentration for half-maximal inhibition (IC50) in [11] (setting [17]) worked out at 7.4 µM; in series [14] it was 120 µM.

For the molecule `C=C(C)[C@@H]1CCC(C)=C[C@H]1c1c(O)cc(CCCCC)cc1O` [CANNABIDIOL], the Activity result in [15] is given as “Toxic”. Besides, the inhibition result in series [16] was “Active”. Besides, the IC50 in series [11] (setting [17]) is 10.3 µM; in series [14] it was 8 µM.

In the case of `C=C(C)[C@@H]1CCC(C)=C[C@H]1c1c(O)cc(CCCCC)cc1OCCO[C@H]1O[C@@H]2O[C@]3(C)CC[C@H]4[C@H](C)CC[C@@H]([C@H]1C)[C@@]24OO3`, the inhibition entry in series [12] and in series [13] was “inactive” in each case. Besides, in [8], the Activity entry was “Non-Toxic”. The inhibition result in series [11] is “Dose-Dependent Effect”. In series [11] (setting [17]), the IC50 came to 55 µM.
